Test results reported in patent publication US12503444B2, “Compound containing benzene ring and application thereof” (WUHAN LL SCIENCE AND TECHNOLOGY DEVELOPMENT CO., LTD., priority 2019, dated 2025).
Where two headings read alike, the source gives them in different places.

Key:
[1] = target: T1, hP2X4 (human purinergic P2X receptor subtype 4) (Homo sapiens, UniProt Q99571); assay: FLIPR assay of intracellular calcium increase induced by activation of hP2X4 expressed in HEK293 cells (agonist BZ-ATP 2.5 μM); format: cell-based; conditions: HEK293 cells stably expressing hP2X4, FLIPR, read-out: P2X4 IC50
T1 sequence (Q99571 1-404 isoform Q99571-2): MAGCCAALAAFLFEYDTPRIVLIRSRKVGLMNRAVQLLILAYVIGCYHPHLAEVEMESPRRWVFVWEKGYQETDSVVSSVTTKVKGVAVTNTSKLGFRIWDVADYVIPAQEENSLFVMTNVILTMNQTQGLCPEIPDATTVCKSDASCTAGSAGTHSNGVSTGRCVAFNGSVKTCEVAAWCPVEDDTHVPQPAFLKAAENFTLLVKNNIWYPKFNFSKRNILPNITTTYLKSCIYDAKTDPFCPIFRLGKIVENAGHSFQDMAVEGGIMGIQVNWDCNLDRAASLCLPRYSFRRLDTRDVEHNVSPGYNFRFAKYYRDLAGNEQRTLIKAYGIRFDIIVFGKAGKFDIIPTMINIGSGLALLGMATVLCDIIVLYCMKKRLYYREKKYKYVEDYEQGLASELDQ
Method: The antagonist property of the compounds disclosed herein was determined using the FLIPR (fluorescence imaging plate reader) method, wherein the compounds are inhibitors for the intracellular calcium increase induced by activation of hP2X4 (human purinergic P2X receptor subtype 4, accession No. NM_001256796.2) expressed in HEK293 cells (human renal epithelial cell line, ATCC).
HEK293 cells stably expressing hP2X4 were cultured in DMEM high glucose medium containing 10% FBS (fetal bovine serum, Biosera, FB-1058/500), 1% penicillin-streptomycin (Gibco, 15140-122) and 1 mg/mL G418 (CABIOCHE, 345810) in a cell incubator (37° C., […]). Cells at 400,000 cells/mL were seeded into a 384-well plate (10,000 cells/well) 18-24 h prior to the FLIPR experiment and then incubated overnight in a cell incubator. On the day of the experiment, the medium was discarded and the cells were washed in an FLIPR buffer (0.3 mL of probenecid (Thermo, P36400), 0.6 mL of 1 M HEPES (Invitrogen, 15630080) and 29.1 mL of HBSS (Invitrogen, 14065056) per 30 mL of the buffer). Each well was added with 20 μL of 0.5× Calcium 6 fluorescent dye (Molecular Devices, R8190) and then the cells were subjected to dye-loading incubation at 37° C. for 1.5 h. Each well was added with 10 μL of respective test compound (dissolved in DMSO at a concentration of 10 mM and serially diluted with buffer) or vehicle and the mixture was equilibrated for 30 min at room temperature. The cell plate was then placed in the FLIPR for baseline fluorescence measurements (excitation at 485 nm and emission at 525-535 nm). An agonist (BZ-ATP (Sigma, B6396) at a final concentration of 2.5 μM) or a vehicle (ultrapure water) was then added at 10 μL/well, fluorescence values were measured for 2 min at 1-second intervals, and finally the output fluorescence counts were analyzed.

[2] = In vitro metabolic stability, liver microsome incubation (human); format: in vitro ADME; conditions: human, liver microsomes; 1 mg/mL liver microsome protein, 37° C.; read-out: T1/2 in human liver microsome min
Method: The in vitro metabolic stability of the compounds disclosed herein was determined through incubation of liver microsomes of various species. A proper amount of test compound was added into a liver microsome reaction system (1 mg/mL liver microsome protein, 25 U/mL glucose-6 phosphate dehydrogenase, 1 mM NADP, 6 mM D-glucose 6-phosphate and 5 mM MgCl2), and then the mixture was incubated in a water bath kettle at 37° C. to start the reaction. At each time point, 100 μL of the reaction system was added into a centrifuge tube containing 400 μL of internal standard working solution (containing a 200 ng/mL solution of dexamethasone, diclofenac, tolbutamide and labetalol in acetonitrile) precooled at 0° C. so as to stop the reaction, and the mixture was then centrifuged at 10,000 g for 10 min at 4° C. The supernatant was collected for LC-MS assay so as to obtain the values of in vitro metabolic half-life of the test compounds in liver microsomes of various species.

Compound | IC50 ([1]; numeric values) [nM] | half-life [2] [h] | IC50 ([1]; class symbols) [nM]
Cn1cc2c(S(N)(=O)=O)cc(NC(=O)Cc3ccccc3Cl)cc2n1 [Compound 3-A, 2-(2-chlorophenyl)-N-(2-methyl-4-sulfamoyl-2H-indazol-6-yl)acetamide] | 4.9 | 106 | 
Cn1ncc2c(S(N)(=O)=O)cc(NC(=O)Cc3ccccc3Cl)cc21 [Compound 3-B, 2-(2-chlorophenyl)-N-(1-methyl-4-sulfamoyl-1H-indazol-6-yl)acetamide] | 6.3 | 2.58 | 
CCn1ncc2c(S(N)(=O)=O)cc(NC(=O)Cc3ccccc3Cl)cc21 [Compound 4-B, (4-sulfonamide-6-N-(2-chlorophenylacetyl)-1-ethyl)-indazole] |  | 1.23 | ≤ 10
CC(C)Cn1cc2c(S(N)(=O)=O)cc(NC(=O)Cc3ccccc3Cl)cc2n1 [Compound 7-A, 2-(2-chlorophenyl)-N-(2-isobutyl-4-sulfamoyl-2H-indazol-6-yl)acetamide] | 4.8 | 0.988 | 
CC(C)C(C)n1cc2c(S(N)(=O)=O)cc(NC(=O)Cc3ccccc3Cl)cc2n1 (centres unmarked) [Compound 10, 2-(2-chlorophenyl)-N-(2-(3-methylbutan-2-yl)-4-sulfamoyl-2H-indazol-6-yl)acetamide] |  | 0.408 | 10 to 50
NS(=O)(=O)c1cc(NC(=O)Cc2ccccc2Cl)cc2c1cnn2CC(F)F [Compound 12-B, 2-(2-chlorophenyl)-N-(1-(2,2-difluoroethyl)-4-sulfamoyl-1H-indazol-6-yl)acetamide] | 21.8 | 0.301 | 
C=CCn1ncc2c(S(N)(=O)=O)cc(NC(=O)Cc3ccccc3Cl)cc21 [Compound 14-B] |  | 1.61 | ≤ 10
NS(=O)(=O)c1cc(NC(=O)Cc2ccccc2Cl)cc2nn(CC3CCC3)cc12 [Compound 24-A, 2-(2-chlorophenyl)-N-(2-(cyclobutylmethyl)-4-sulfamoyl-2H-indazol-6-yl)acetamide] | 1.6 | 1.08 | 
NS(=O)(=O)c1cc(NC(=O)Cc2ccccc2Cl)cc2nn(CC3CCCC3)cc12 [Compound 31-A, 2-(2-chlorophenyl)-N-(2-(cyclopentylmethyl)-4-sulfamoyl-2H-indazol-6-yl)acetamide] |  | 0.748 | ≤ 10
COc1cccc(Cn2cc3c(S(N)(=O)=O)cc(NC(=O)Cc4ccccc4Cl)cc3n2)c1 [Compound 36-A, 2-(2-chlorophenyl)-N-(2-(3-methoxybenzyl)-4-sulfamoyl-2H-indazol-6-yl)acetamide] |  | 1.44 | 10 to 50
COc1cccc(Cn2ncc3c(S(N)(=O)=O)cc(NC(=O)Cc4ccccc4Cl)cc32)c1 [Compound 36-B, 2-(2-chlorophenyl)-N-(1-(3-methoxybenzyl)-4-sulfamoyl-1H-indazol-6-yl)acetamide] |  | 0.962 | 10 to 50
COc1ccccc1Cn1cc2c(S(N)(=O)=O)cc(NC(=O)Cc3ccccc3Cl)cc2n1 [Compound 37-A, 2-(2-chlorophenyl)-N-(2-(2-methoxybenzyl)-4-sulfamoyl-2H-indazol-6-yl)acetamide] |  | 1.32 | 10 to 50
COCCOc1cccc(CC(=O)Nc2cc(S(N)(=O)=O)c3cn(C(F)F)nc3c2)c1 [Compound 116, N-(2-(difluoromethyl)-4-sulfamoyl-2H-indazol-6-yl)-2-(3-(2-methoxyethoxy)phenyl)acetamide] |  |  | 200 to 5000
NS(=O)(=O)c1cc(NC(=O)Cc2ccccc2Cl)cc2nn(CCN3CCOCC3)cc12 [Compound 118, 2-(2-chlorophenyl)-N-(2-(2-morpholinoethyl)-4-sulfamoyl-2H-indazol-6-yl)acetamide] |  |  | 200 to 5000
NS(=O)(=O)c1cc(NC(=O)Cc2ccccc2Cl)cc2c1cnn2CCN1CCOCC1 [Compound 118A, 2-(2-chlorophenyl)-N-(1-(2-morpholinoethyl)-4-sulfamoyl-1H-indazol-6-yl)acetamide] |  |  | 200 to 5000
CC1(N2Cc3cc(NC(=O)Cc4ccccc4Cl)cc(S(N)(=O)=O)c3C2)COC1 [Compound 130, 2-(2-chlorophenyl)-N-(2-(3-methyloxetan-3-yl)-7-sulfamoylisoindolin-5-yl)acetamide] |  |  | 200 to 5000
NS(=O)(=O)c1cc(NC(=O)Cc2ccccc2Cl)cc2c1CN(C(=O)c1ccc(F)cc1)C2 [Compound 131, 2-(2-chlorophenyl)-N-(2-(4-fluorobenzoyl)-7-sulfamoylisoindolin-5-yl)acetamide] |  |  | 10 to 50
NS(=O)(=O)c1cc(NC(=O)Cc2ccccc2Cl)cc2c1CN(Cc1ccc(F)cc1)C2 [Compound 132, 2-(2-chlorophenyl)-N-(2-(4-fluorobenzyl)-7-sulfamoyliodo-5-yl)acetamide] |  |  | 200 to 5000
NS(=O)(=O)c1cc(NC(=O)CC2CCCCC2O)cc2nn(C(F)F)cc12 (centres unmarked) [Compound 136, N-(2-(difluoromethyl)-4-sulfamoyl-2H-indazol-6-yl)-2-(2-hydroxycyclohexyl)acetamide] |  |  | 200 to 5000
COc1ccc(Cn2cc3c(S(C)(=N)=O)cc(NC(=O)Cc4ccccc4Cl)cc3n2)cc1 (centres unmarked) [Compound 137, 2-(2-chlorophenyl)-N-(2-(4-methoxybenzyl)-4-(S-methylsulfonylimino)-2H-indazol-6-yl)acetamide] |  |  | 200 to 5000
C[S@](=N)(=O)c1cc(NC(=O)Cc2ccccc2Cl)cc2nn(Cc3ccc(F)cc3)cc12 [Compound 138, (S)-2-(2-chlorophenyl)-N-(2-(4-fluorophenylmethyl)-4-(S-methylsulfonimidoyl)-2H-indazol-6-yl)acetamide] |  |  | 200 to 5000
C[S@@](=N)(=O)c1cc(NC(=O)Cc2ccccc2Cl)cc2nn(Cc3ccc(F)cc3)cc12 [Compound 138A, (R)-2-(2-chlorophenyl)-N-(2-(4-fluorophenylmethyl)-4-(S-methylsulfonimidoyl)-2H-indazol-6-yl)acetamide] |  |  | 200 to 5000
Cc1ccccc1CC(=O)Nc1cc([S@@](C)(=N)=O)c2cn(Cc3ccc(F)cc3)nc2c1 [Compound 139, (S)—N-(2-(4-fluorophenylmethyl)-4-(S-methylsulfonimidoyl)-2H-indazol-6-yl)-2-(o-phenylmethyl)acetamide] |  |  | 200 to 5000
Cc1ccccc1CC(=O)Nc1cc([S@](C)(=N)=O)c2cn(Cc3ccc(F)cc3)nc2c1 [Compound 139A] |  |  | 200 to 5000
COc1ccccc1CC(=O)Nc1cc(S(C)(=N)=O)c2cn(Cc3ccc(F)cc3)nc2c1 (centres unmarked) [Compound 140, N-(2-(4-fluorophenylmethyl)-4-(S-methylsulphonimidoyl)-2H-indazol-6-y)-2-(2-methoxyphenyl)acetamide] |  |  | 200 to 5000
NS(=O)(=O)c1cc(NC(=O)Cc2ccccc2Cl)cc2c1cnn2CC1CCOCC1 [Compound 141A, 2-(2-chlorophenyl)-N-(4-sulfamoyl-1-((tetrahydro-2H-pyran-4-yl)methyl)-1H-indazol-6-yl)acetamide] |  |  | 50 to 200
N-(2-(4-chlorobenzyl)-4-sulfamoyl-2H-indazol-6-yl)-2-(2-chlorophenyl)acetamide [Compound 89] |  |  | ≤ 10
N-(4-(N,N-bis(4-methoxybenzyl)sulfamoyl)-1-(4-(trifluoromethyl)benzyl)-1H-indazol-6-yl)-2-(2-chlorophenyl)acetamide [Compound 90A] |  |  | ≤ 10
N-(4-(N,N-bis(4-methoxybenzyl)sulfamoyl)-1-(4-fluorobenzyl)-1H-indazol-6-yl)-2-(2-chlorophenyl)acetamide [Compound 88A] |  |  | ≤ 10
